Here are results for 18 compounds from patent publication US6069254A, “Carboxamide derivatives of piperidine for the treatment of thrombosis disorders” (Ortho Pharmaceutical Corp., priority 1997, dated 2000).

The IC50 is the concentration that gives 50% inhibition.

Where a name gives a salt, the structure may show the parent alone. Read-outs that look alike come from different tables or passages of the source.

Assay [1] concerns the target GPIIb/IIIa (Homo sapiens, UniProt P05106+P08514). The experiment in a line: In Vitro Solid Phase Purified Glycoprotein IIb/IIIa Binding Assay (fibrinogen binding). The method, then:
In Vitro Solid Phase Purified Glycoprotein IIB/IIIA Binding Assay
The plate is covered and incubated overnight at 4° C. The GPIIb/IIIa solution is discarded and 150 μl of 5% BSA is added and incubated at RT for 1-3 h. The plate is washed extensively with modified Tyrodes buffer. Biotinylated fibrinogen (25 μl/well) at 2×final concentration is added to the wells that contain the test compounds (25 μl/well). The plate is covered and incubated at RT for 2-4 h. Twenty minutes prior to incubation completion, one drop of Reagent A (Vecta Stain ABC Horse Radish Peroxidase kit, Vector Laboratories, Inc.) and one drop Reagent B are added with mixing to 5 mL modified Tyrodes buffer mix and let stand. The ligand solution is discarded and the plate washed (5×200 μl/well) with modified Tyrodes buffer. Vecta Stain HRP-Biotin-Avidin reagent (50 μl/well, as prepared above) is added and incubated at RT for 15 min. The Vecta Stain solution is discarded and the wells washed ([…]) with modified Tyrodes buffer. Developing buffer (10 mL of 50 mM citrate/phosphate buffer @ pH 5.3, 6 mg Q-phenylenediamine, 6 μl 30% H2 O2; 50 μl/well) is added and incubated at RT for 3-5 min, and then 2N H2 SO4 (50 μl/well) is added. The absorbance is read at 490 nm.

Assay [2] relates to gel-filtered platelets (thrombin-induced aggregation). The experiment in a line: In Vitro Inhibition of Thrombin-Induced Gel-Filtered Platelet Aggregation Assay. Type of assay: cell-based. The note with it: Homo sapiens; for inhibition at 50 µM: read-out: Platelet Aggregation % Inh. (50 μM); for IC50: read-out: Platelet Aggregation IC50. How it is done:
In Vitro Inhibition of Thrombin-Induced Gel-Filtered Platelet Aggregation Assay
The percentage of platelet aggregation is calculated as an increase in light transmission of compound-treated platelet concentrate vs. control-treated platelet concentrate. Human blood is obtained from drug free, normal donors into tubes containing 0.13M sodium citrate. Platelet rich plasma (PRP) is collected by centrifugation of whole blood at 200×g for 10 min at 25° C. The PRP (5 mL) is gel filtered through Sepharose 2B (bed volume 50 mL), and the platelet count is adjusted to 2×10^7 platelets per sample. The following constituents are added to a siliconized cuvette: concentrated platelet filtrate and Tyrode's buffer (0.14M NaCl, 0.0027M KCl, 0.012M NaHCO3,0.76 mM Na2 HPO4, 0.0055M glucose, 2 mg/mL BSA and 5.0 mM HEPES @ pH 7.4) in an amount equal to 350 μl, 50 μl of 20 mM calcium and 50 μl of the test compound. Aggregation is monitored in a BIODATA aggregometer for the 3 min following the addition of agonist (thrombin 50 μl of 1 unit/mL).

In assay [3] the test system is collagen or ADP-induced ex vivo platelet aggregation. The experiment in a line: Ex Vivo Dog Study: ex vivo platelet aggregation. The format is in vivo. How it is done:
Adult mongrel dogs (8-13 kg) were anesthetized with sodium pentobarbital ([…], i.v.) and artificially respired. Arterial blood pressure and heart rate were measured using a Millar catheter-tip pressure transducer inserted in a femoral artery Another Millar transducer was placed in the left ventricle (LV) via a carotid artery to measure LV end diastolic pressure and indices of myocardial contractility. A lead electrocardiogram was recorded from limb electrodes. Catheters were placed in a femoral artery and vein to sample blood and infuse drugs, respectively. Responses were continuously monitored using a Modular Instruments data aquisition system.
Separate blood samples (1.5 ml) were withdrawn in EDTA to determine hematocrit and cell counts (platelets, RBC's and white cells). Template bleeding times were obtained from the buccal surface using a symplate incision devise and Whatman filter paper.
Aggregation of PRP was performed using a BioData aggregometer. Aggregation of whole blood used a Chronolog impedance aggregometer. PT and APTT were determined on either a BioData or ACL 3000+ coagulation analyser. Cells were counted with a Sysmex K-1000.
Compounds were solubilized in a small volume of dimethylformamide (DMF) and diluted with saline to a final concentration of 10% DMF. Compounds were administered by the intravenous route with a Harvard infusion pump. […] Data were obtained after each dose and in 30 min intervals following the end of drug administration. Oral doses were administered as aqueous solutions via syringe.

The subject of assay [4] is thrombus formation. As to the kind of experiment: canine arteriovenous shunt model of thrombosis. Particulars: iv infusion. Type of assay: in vivo.
Where [5] appears, read: isolated GPIIb/IIIa, biotinylated fibrinogen, read-out: Fibrinogen Binding IC50.
[6] abbreviates: 50 μM, thrombin-induced aggregation of gel-filtered platelets.
Setting [7] is: thrombin-induced aggregation of gel-filtered platelets.

GPIIb/IIIa, sequence (P08514 32-887 limits assumed): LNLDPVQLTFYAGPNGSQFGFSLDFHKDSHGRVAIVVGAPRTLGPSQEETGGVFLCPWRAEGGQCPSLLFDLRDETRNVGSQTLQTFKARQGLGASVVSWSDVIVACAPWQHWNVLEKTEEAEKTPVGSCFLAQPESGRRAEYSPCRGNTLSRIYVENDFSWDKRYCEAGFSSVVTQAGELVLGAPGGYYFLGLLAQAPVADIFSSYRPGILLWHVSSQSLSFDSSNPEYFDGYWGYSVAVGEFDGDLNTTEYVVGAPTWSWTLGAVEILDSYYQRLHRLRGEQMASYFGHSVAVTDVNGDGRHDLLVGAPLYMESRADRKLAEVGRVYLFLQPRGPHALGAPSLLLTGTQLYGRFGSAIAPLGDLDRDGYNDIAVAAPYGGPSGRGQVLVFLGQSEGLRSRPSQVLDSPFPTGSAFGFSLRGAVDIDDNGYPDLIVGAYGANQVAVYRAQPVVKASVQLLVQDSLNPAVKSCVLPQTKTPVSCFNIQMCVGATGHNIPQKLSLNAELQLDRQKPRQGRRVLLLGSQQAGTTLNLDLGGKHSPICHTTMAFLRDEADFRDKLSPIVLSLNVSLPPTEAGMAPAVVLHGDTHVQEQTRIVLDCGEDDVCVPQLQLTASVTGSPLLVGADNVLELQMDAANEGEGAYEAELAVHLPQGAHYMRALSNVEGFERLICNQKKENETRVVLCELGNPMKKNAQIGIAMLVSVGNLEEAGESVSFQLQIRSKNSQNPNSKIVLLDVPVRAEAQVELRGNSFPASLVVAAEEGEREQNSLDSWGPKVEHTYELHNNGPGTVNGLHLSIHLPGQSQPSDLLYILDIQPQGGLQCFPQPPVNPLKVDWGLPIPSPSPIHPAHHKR
GPIIb/IIIa, sequence (P08514 891-1039 limits assumed): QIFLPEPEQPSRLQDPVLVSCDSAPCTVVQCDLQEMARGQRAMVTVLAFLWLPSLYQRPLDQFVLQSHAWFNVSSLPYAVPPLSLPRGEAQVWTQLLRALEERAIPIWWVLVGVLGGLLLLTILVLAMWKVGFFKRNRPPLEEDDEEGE
GPIIb/IIIa, sequence (P05106 27-788): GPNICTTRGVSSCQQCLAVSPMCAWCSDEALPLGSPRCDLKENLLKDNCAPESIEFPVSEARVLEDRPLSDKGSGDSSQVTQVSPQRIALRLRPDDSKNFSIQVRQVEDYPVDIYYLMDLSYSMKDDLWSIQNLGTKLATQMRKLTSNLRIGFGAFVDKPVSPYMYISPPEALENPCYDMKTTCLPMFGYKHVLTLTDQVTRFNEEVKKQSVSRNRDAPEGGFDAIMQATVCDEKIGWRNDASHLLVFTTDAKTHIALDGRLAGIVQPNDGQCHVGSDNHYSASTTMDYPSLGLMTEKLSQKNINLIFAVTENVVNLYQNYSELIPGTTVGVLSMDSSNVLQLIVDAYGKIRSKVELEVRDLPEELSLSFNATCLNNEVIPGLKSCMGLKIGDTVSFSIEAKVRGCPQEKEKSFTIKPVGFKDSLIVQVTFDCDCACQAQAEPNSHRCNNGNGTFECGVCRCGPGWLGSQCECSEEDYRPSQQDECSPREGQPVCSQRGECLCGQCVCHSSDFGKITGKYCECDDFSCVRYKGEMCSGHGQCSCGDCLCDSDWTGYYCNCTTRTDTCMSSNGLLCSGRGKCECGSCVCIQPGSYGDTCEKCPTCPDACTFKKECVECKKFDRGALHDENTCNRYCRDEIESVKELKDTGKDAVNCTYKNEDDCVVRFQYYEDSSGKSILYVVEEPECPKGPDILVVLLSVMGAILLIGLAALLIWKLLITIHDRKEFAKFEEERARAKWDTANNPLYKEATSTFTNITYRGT

As to `O=C(O)C(O)CNC(=O)[C@@H]1CCCN(C(=O)CCC2CCNCC2)C1` (single isomer, unassigned) [Compound 11, N-3-(4-Piperidinepropionyl)-R-(-)-nipecotyl-(3-amino-2-hydroxy) propionic acid.TFA], in assay [1] (setting [5]), the IC50 was 4 nM.

For `NCCCCCC(=O)N1CCCC(C(=O)NC(CC(=O)O)c2cccnc2)C1` (stereo not drawn) [Compound 10, N-(6-Aminocaproyl)-nipecotyl-3-amino-3-(3-pyridyl)propionic acid.3TFA], the IC50 in assay [1] is 19 nM; in assay [2] (setting [7]) it was 1600 nM. Besides, in assay [2] (setting [6]), the inhibition at 50 µM is 85%.

With `O=C(O)C[C@H](NC(=O)[C@@H]1CCCN(C(=O)CCC2CCNCC2)C1)c1ccc2c(c1)OCO2` [Compound 16, N-3-(4-Piperidinepropionyl)-R-(-)-nipecotyl-[(S)-3-amino-3-(3,4-methylenedioxyphenyl)]propionic acid.HCl], the half-inhibitory concentration (IC50) in assay [1] (setting [5]) worked out at 0.5 nM; in assay [2], 28 nM. In addition, the inhibition at 50 µM in assay [1] (read-out: Fibrinogen Binding % Inh. (50 μM)) turned out to be 100%; in assay [2], 94%. Besides, the “Duration of >50% inhibition of collagen or ADP induced ex vivo platelet aggregation” value in assay [3] (intravenous, 0.1 mpk) was 60 min; in assay [3] (oral, 1 mpk), 60 min; in assay [3] (oral, 3 mpk), greater than 180 min. For the same compound, the “thrombus weight vs. vehicle control” value is 75% in assay [4] (10 μg/kg/min cumulative dose), 37% in assay [4] (30 μg/kg/min cumulative dose) and 12% in assay [4] (100 μg/kg/min cumulative dose). In addition, in assay [4], the “efficacy in canine arteriovenous shunt model of thrombosis” value is “have shown efficacy in a canine arteriovenous shunt model of thrombosis in a dose-dependent fashion”.

For the compound `O=C(O)C[C@H](NC(=O)[C@@H]1CCCN(C(=O)CCC2CCNCC2)C1)c1cnc2ccccc2c1` [Compound 18, N-3-(4-Piperidinepropionyl)-R-(-)-nipecotyl-[(S)-3-amino-3-(3-quinolinyl)]propionic acid.2HCl], in assay [1] (setting [5]), the IC50 came to 0.2 nM. Further, in assay [2] (setting [6]), the inhibition at 50 µM was determined as 100%. For the same compound, the “efficacy in canine arteriovenous shunt model of thrombosis” value in assay [4] is listed as “have shown efficacy in a canine arteriovenous shunt model of thrombosis in a dose-dependent fashion”.

Regarding `O=C(O)C[C@H](NC(=O)C1CCCN(CCCC2CCNCC2)C1)c1ccc2c(c1)OCO2` (stereo partly drawn) [Compound 20, N-3-(4-Piperidinepropyl)-nipecotyl-[(S)-3-amino-3-(3,4-methylenedioxyphenyl)]propionic acid.2TFA], in assay [1] (setting [5]), the IC50 is 0.7 nM.

Regarding `O=C(O)C[C@H](NC(=O)[C@@H]1CCCN(C(=O)CCC2CCNCC2)C1)c1cccnc1` [Compound 21, N-3-(4-Piperidinepropionyl)-R-(-)-nipecotyl-[(S)-3-amino-3-(3-pyridyl)]propionic acid.2TFA], the IC50 in assay [1] (setting [5]) was 0.5 nM; in assay [2] (setting [7]) it was 60 nM. In addition, the inhibition at 50 µM in assay [2] (setting [6]) was determined as 100%.

In the case of `COc1cccc(NC(=O)N[C@@H](CNC(=O)[C@@H]2CCCN(C(=O)CCC3CCNCC3)C2)C(=O)O)c1` [Compound 22, N-3-(4-Piperidinepropionyl)-R-(-)nipecotyl-[(S)-2-(3-methoxyanilino)carbonylamino-3-amino]propionic acid], in assay [1] (setting [5]), the IC50 came to 0.7 nM.

For the compound `O=C(N[C@@H](CNC(=O)[C@@H]1CCCN(C(=O)CCC2CCNCC2)C1)C(=O)O)OCc1ccccc1` [Compound 23, N-3-(4-Piperidinepropionyl)-R-(-)nipecotyl-[(S)-2-benzyloxycarbonylamino-3-amino]propionic acid.HCl], the IC50 in assay [1] (setting [5]) stood at 0.3 nM.

For `O=C(N[C@@H](CNC(=O)[C@@H]1CCCN(C(=O)CCC2CCNCC2)C1)C(=O)O)OCc1cccc(Cl)c1` [Compound 24, N-3-(4-Piperidinepropionyl)-R-(-)nipecotyl-[(S)-2-(3-chlorobenzyloxy)carbonylamino-3-amino]propionic acid.HCl], the inhibition at 50 µM in assay [2] (setting [6]) was determined as 100%.

In the case of `O=C(NC[C@H](NS(=O)(=O)Cc1ccccc1)C(=O)O)[C@@H]1CCCN(C(=O)CCC2CCNCC2)C1` [Compound 25, N-3-(4-Piperidinepropionyl)-R-(-)nipecotyl-[(S)-2-benzylsulfonylamino-3-amino]propionic acid.HCl], the IC50 was 0.3 nM in assay [1] (setting [5]) and 7 nM in assay [2] (setting [7]).

Turning to `COc1cc(NC(=O)N[C@@H](CNC(=O)[C@@H]2CCCN(C(=O)CCC3CCNCC3)C2)C(=O)O)cc(OC)c1` [Compound 26, N-3-(4-Piperidinepropionyl)-R-(-)nipecotyl-[(S)-2-(3,5-dimethoxyanilino)carbonylamino-3-amino]propionic acid.HCl], in assay [1] (setting [5]), the IC50 stood at 0.3 nM.

In the case of `O=C(O)C[C@H](NC(=O)[C@@H]1CCCN(C(=O)N2CCC(C3CCNCC3)CC2)C1)c1cccnc1` [Compound 27, N-[(4,4'-Bipiperidin-1-yl-)carbonyl]-R-(-)-nipecotyl-[(S)-3-amino-3-(3-pyridyl)]propionic acid.3HCl], in assay [1] (setting [5]), the IC50 was found to be 0.6 nM. Also, the inhibition at 50 µM in assay [2] (setting [6]) is 100%.

Regarding `O=C(Nc1ccc2ccccc2c1)N[C@@H](CNC(=O)[C@@H]1CCCN(C(=O)CCC2CCNCC2)C1)C(=O)O` [Compound 28, N-3-(4-Piperidinepropionyl)-R-(-)nipecotyl-[(S)-2-(2-naphthylamino)carbonylamino-3-amino]propionic acid.HCl], the IC50 in assay [1] (setting [5]) came out at 0.2 nM. Further, the inhibition at 50 µM in assay [2] (setting [6]) is 100%.

Take `O=C(NC[C@@H]1NC(=O)N(Cc2ccccc2)C1=O)[C@@H]1CCCN(C(=O)CCC2CCNCC2)C1` [Compound 29, N-3-(4-Piperidinepropionyl)-R-(-)nipecotyl-aminomethyl-5-(S)-(3-N-benzyl)imidazoline-2,4-dione.HCl]: in assay [1] (setting [5]), the IC50 amounted to 68 nM. In addition, the inhibition at 50 µM in assay [2] (setting [6]) was 100%.

For the compound `O=C(NCCc1ccccc1)N[C@@H](CNC(=O)[C@@H]1CCCN(C(=O)CCC2CCNCC2)C1)C(=O)O` [Compound 30, N-3-(4-Piperidinepropionyl)-R-(-)nipecotyl-[(S)-2-(2-phenethylamino)carbonylamino-3-amino]propionic acid.HCO2 H], the concentration for half-maximal inhibition (IC50) in assay [1] (setting [5]) was found to be 0.8 nM. Moreover, the inhibition at 50 µM in assay [2] (setting [6]) worked out at 100%.

Turning to `Cc1ccc([C@H](CC(=O)O)NC(=O)[C@@H]2CCCN(C(=O)CCC3CCNCC3)C2)cn1` [Compound 31, N-3-(4-Piperidinepropionyl)-R-(-)nipecotyl-[(S)-3-amino-3-(6-methyl-3-pyridyl)]propionic acid.2HCl], the IC50 in assay [1] (setting [5]) was found to be 0.3 nM. Besides, the inhibition at 50 µM in assay [2] (setting [6]) was 100%.

As for `O=C(O)C[C@H](NC(=O)[C@@H]1CCCN(C(=O)CCC2CCNCC2)C1)c1cncc(Br)c1` [Compound 32, N-3-(4-Piperidinepropionyl)-R-(-)nipecotyl-[(S)-3-amino-3-(5-bromo-3-pyridyl)]propionic acid.2HCl], in assay [1] (setting [5]), the IC50 worked out at 0.4 nM.

For `N=CN1CCC(CCC(=O)N2CCC[C@@H](C(=O)N[C@@H](CC(=O)O)c3cccnc3)C2)CC1` [Compound 33, N-3-(4-Formamidinopiperidinepropionyl)-R-(-)nipecotyl-[(S)-3-amino-3-(3-pyridyl)]propionic acid.2HCl], the IC50 in assay [1] (setting [5]) was 0.7 nM; in assay [2] (setting [7]), 300 nM. For the same compound, in assay [2] (setting [6]), the inhibition at 50 µM was determined as 100%.
